# Assay results reported in article PMC9598926, “Design and Synthesis of (Z)-5-(Substituted benzylidene)-3-cyclohexyl-2-thioxothiazolidin-4-one Analogues as Anti-Tyrosinase and Antioxidant Compounds: In Vitro and In Silico Insights” (Antioxidants, 2022).
# Assays:
# [1] = Peroxynitrite (ONOO−) scavenging activity assay (DHR 123, SIN-1); settings: SIN–1 10 µM; 5, 10, 20 µM
# Protocol: 2.14. Peroxynitrite (ONOO^−) Scavenging Activity Assay
# Peroxynitrite-scavenging activities were determined as described by Kooy et al. with modification. This method monitors the fluorescence of rhodamine 123, which is formed rapidly when non-fluorescent DHR 123 (dihydrorhodamine 123) (Molecular Probes, Eugene, OR, USA) in the presence of peroxynitrite. The rhodamine buffer solution (pH 7.4) included of 50 mM sodium phosphate, 90 mM sodium chloride, 5 mM potassium chloride, and 100 µM DTPA. The final concentration of DHR 123 was 5 µM. In this assay, the buffer solution was prepared prior to use and then stood on ice. Test compounds (10 µL, final concentrations: 5, 10, and 20 µM) dissolved in DMSO and added to 10 µL SIN-1 (10 µM) and 180 µL rhodamine buffer solution in the wells of a black 96-well plate. Fluorescence intensities of oxidized DHR 123 were measured using a fluorescence plate reader (Berthold Advances GmbH & Co., Bad Wildbad, Germany) with an excitation and emission wavelengths of 485 and 535 nm, respectively. Peroxynitrite scavenging activity was calculated after subtracting background fluorescence from final fluorescence intensity. Results are expressed as means ± standard deviation (SD), and L-penicillamine was used as a positive control.
# Several RNS (reactive nitrogen species), including peroxynitrite (ONOO^–) and nitric oxide, are known to be involved in the induction of the melanogenesis. Therefore, we investigated the effects of analogs 1–8 on peroxynitrite scavenging activity using DHR123 (dihydrorhodamine) as a ROS indicator and SIN–1 as an RNS generator. Peroxynitrite generated by SIN–1 oxidizes DHR123 to rhodamine 123, a fluorescent compound. Thus, the effects of analogs on peroxynitrite scavenging ability were determined by measuring rhodamine 123 fluorescence.
# mushroom tyrosinase = test: Mushroom tyrosinase activity assay (L-tyrosine as substrate); format: biochemical; settings: mushroom tyrosinase, means ± SEMs of triplicate determinations
# Protocol: 2.2. […] In brief, 20 µL of an aqueous mushroom tyrosinase solution (1000 units/mL) and 170 µL of a substrate mixture containing 345 µM of L-tyrosine and 17.2 mM of sodium phosphate buffer (pH 6.5) were added to wells of a 96-well microplate. […] Amounts of dopachrome produced were assessed by measuring optical densities at 475 nm using a microplate reader (VersaMax®, Molecular Devices, Sunnyvale, CA, USA). […] Experiments were independently conducted three times.
# [2] = ABTS cation radical scavenging activity assay; settings: test sample 100 µM, 2 min in the dark
# Protocol: 2.12. ABTS Cation Radical Scavenging Activity Assay
# The free radical scavenging activities of analogs 1–8 and Trolox were determined using an ABTS radical cation decolorization assay (SEJIN CI Co., Seoul, Korea), as previously described with minor modification. Trolox was used as the positive control. ABTS radicals were produced by adding 10 mL of 7 mM ABTS in distilled water to 10 mL of 2.45 mM aqueous potassium persulfate solution. The mixture was kept in the dark for 12–16 h at RT until the reaction was complete and absorbance had stabilized. The prepared free radical solution was then diluted with methyl alcohol so that the optical density at 734 nm was 0.70 ± 0.02. Test samples (10 µL, final concentration at 100 µM) dissolved in EtOH/DMSO (9:1 v/v) were added to the diluted free radical solution (90 µL) in a 96-well plate. After standing at RT for 2 min in the dark, well absorbances were measured at 734 nm, and ABTS radical scavenging activities were calculated using the following formula:ABTS free radical scavenging activity (%) = (Ac − As) × 100/Ac(2) where Ac indicates the absorbance of the non-treated control, and As indicates the absorbances of test samples. Experiments were conducted independently 3 times.
# The ABTS (2,2′-azino-bis(3-ethylbenzothiazoline-6-sulfonic acid)) cation radical scavenging assay is also commonly used to evaluate antioxidant effects. ABTS is converted to the ABTS radical cation by the transfer of one electron to potassium persulfate. Trolox was used as the positive control, and assays were performed at a test sample (analogs 1–8 and Trolox) concentration of 100 µM. The ABTS radical solution obtained by a reaction of ABTS with potassium persulfate was mixed with test samples and left in the dark for 2 min. ABTS radical scavenging abilities were evaluated by measuring absorbances at 734 nm. […] On the other hand, analog 1 with a 4-hydroxyphenyl group, and analogs 7 and 8 with bromo substituents on the β-phenyl ring weakly scavenged the ABTS radical (16.6–24.8% scavenging). […] Furthermore, the results for ABTS and DPPH radical scavenging activities were similar.
# [3] = ROS scavenging activity assay (DCFH-DA/esterase, SIN-1); settings: SIN–1 10 µM; 5, 10, 20 µM
# Protocol: 2.13. ROS Scavenging Activity Assay
# The ROS scavenging activities of analogs 1–8 and Troloxwere determined as previously described by Ali et al. and Lebel and Bondy. Briefly, 2.5 mM DCFH-DA (2’,7’-dichlorodihydrofluorescein diacetate) (Molecular Probes, Eugene, OR, USA) solution was mixed with esterase (1.5 units/mL) in 50 mM phosphate buffer (pH 7.4), held for 30 min at 37 °C, and keep on ice in the dark until required. Tested compounds (10 µL; final concentrations: 5, 10, and 20 µM) dissolved in DMSO and SIN-1 (3-morpholinosydnonimine) (10 µM) and 180 µL of phosphate buffer in the wells of a black 96-well plate for 30 min. The 50 µL of DCFH-DA-esterase mixture (20 µM) was added. Fluorescence intensities of oxidized DCFH (DCF or 2′,7′-dichlorofluorescein) were measured using a microplate reader (Berthold Advances GmbH & Co., Bad Wildbad, Germany) with excitation and emission wavelengths of 485 and 530 nm, respectively. Trolox was used as the reference control.
# Since it has been reported that reactive oxygen species (ROS) are concerned in the regulation of melanogenesis, we examined the ROS scavenging activities of analogs 1–8 using DCFH-DA (2′,7′-dichlorodihydrofluorescein diacetate) and esterase. Trolox and SIN–1 (3-morpholinosydnonimine) were used as the positive control and a ROS generator, respectively. Hydrolysis of DCFA-DA by esterase generates DCFH (2′,7′-dichlorodihydrofluorescein), which reacts with ROS generated by SIN–1 to produce the fluorescent compound DCF (2′,7′-dichlorofluorescein). Thus, ROS scavenging activities of analogs were assessed by measuring DCF fluorescence. […] Test samples including Trolox were treated at three different concentrations (5, 10, or 20 µM).
# [4] = DPPH radical scavenging activity assay; settings: test sample 500 µM, DPPH 0.18 mM, 30 min in the dark
# Protocol: 2.11. DPPH Radical Scavenging Activity Assay
# The DPPH radical scavenging activities of analogs 1–8 were investigated as previously described with minor modification. L-Ascorbic acid was used as a positive control. In brief, 20 µL of analogs (5 mM) in DMSO or 5 mM L-ascorbic acid in distilled water were mixed with 180 µL of 0.2 mM DPPH in methanol in a 96-well microplate. After the microplate had been stored in the dark for 30 min, optical densities (ODs) were measured at 517 nm using a microplate reader (VersaMax®, Molecular Devices, Sunnyvale, CA, USA). DPPH radical scavenging activities were determined using the following formula:DPPH radical scavenging activity (%) = 100 × (Ac − As)/Ac(1) where Ac indicates the optical density of the non-treated control and As indicates the optical density of test sample. Experiments were conducted independently 3 times.
# There is a possibility that compounds with antioxidant properties inhibit the oxidations of tyrosinase substrates, such as L-tyrosine and L-dopa, without interacting with the tyrosinase. Melanin production requires many oxidative processes, including the conversion of L-tyrosine to dopaquinone via L-dopa. Therefore, compounds with antioxidant activity have the potential to inhibit melanogenesis. DPPH (2,2-diphenyl-1-picrylhydrazyl) contains a free radical, and DPPH assays are commonly used to assess antioxidant activity. In this experiment, L-ascorbic acid (an antioxidant) was used as a positive control. The assay was conducted at a test sample and L-ascorbic acid concentration of 500 µM and a DPPH concentration of 0.18 mM. After standing test sample/DPPH mixtures for 30 min in the dark, optical densities were measured to evaluate radical scavenging activities.
# B16F10 cells = test: Melanin content analysis in α–MSH plus IBMX stimulated B16F10 cells; format: cell-based, murine; settings: α–MSH/IBMX stimulated (3.5-fold), 20 µM, 72 h
# Protocol: 2.10. Melanin Content Analysis Melanin content assays were performed to determine the effects of analog 3 on cellular melanin formation, as previously described with minor modification. […] Briefly, cultured B16F10 cells were seeded in 6-well culture plates at 1 × 10^4 cells/well and incubated for 12 h under culture conditions to allow them to adhere to well bottoms. […] Cells were then washed twice with PBS and detached from wells by incubation with Trypsin/EDTA. After centrifugation, detached cell pellets were dissolved in 1N–NaOH solution (100 µL), incubated for 1 h at 60 °C, and mixed to solubilize melanin released by cells. The ability of analog 3 to inhibit melanin production was determined by measuring well optical densities (ODs) at 405 nm using a microplate reader (VersaMax®, Molecular Devices, Sunnyvale, CA, USA). Melanin contents were calculated by dividing the ODs of samples by the control OD. Experiments were conducted independently 3 times. […] Thus, B16F10 cells were treated with analog 3 (0, 5, 10, or 20 µM) for 1 h and then stimulated with α–MSH (1 µM) plus IBMX (200 µM) for 72 h. Melanin contents were assessed by measuring optical densities at 405 nm.
Compound,IC50 (mushroom tyrosinase),ABTS radical scavenging activity [2],further results
"CC(C)(S)C(N)C(=O)O (stereo in doubt) [penicillamine, L-penicillamine, reference compound]",,,peroxynitrite scavenging [1]: significantly and concentration-dependently reduced
"COc1ccc(/C=C2\SC(=S)N(C3CCCCC3)C2=O)cc1O [Analog 5, (Z)-3-Cyclohexyl-5-(3-hydroxy-4-methoxybenzylidene)-2-thioxothiazolidin-4-one]",55 ± 11.9 µM,43.5%,
"Cc1c(C)c2c(c(C)c1O)CCC(C)(C(=O)O)O2 (stereo not shown) [Trolox, reference compound]",,79.8%,ROS scavenging [3]: significantly and concentration-dependently scavenged ROS
"O=c1cc(CO)occ1O [kojic acid, reference compound]",,,melanin contents versus non-treated controls (B16F10 cells): 3.0 fold

# More lines, main results first:
IC50 (mushroom tyrosinase),Compound,ABTS radical scavenging activity [2],further results
65.4 ± 7.82 µM,"O=C1/C(=C/c2ccc(O)cc2)SC(=S)N1C1CCCCC1 [Analog 1, (Z)-3-Cyclohexyl-5-(4-hydroxybenzylidene)-2-thioxothiazolidin-4-one]",16.6–24.8%,ROS scavenging [3]: significantly and concentration-dependently scavenged ROS
> 200 µM,"COc1cc(/C=C2\SC(=S)N(C3CCCCC3)C2=O)ccc1O [Analog 4, (Z)-3-Cyclohexyl-5-(4-hydroxy-3-methoxybenzylidene)-2-thioxothiazolidin-4-one]",57.7%,DPPH radical scavenging activity [4]: 72%
> 200 µM,"COc1cc(/C=C2\SC(=S)N(C3CCCCC3)C2=O)cc(OC)c1O [Analog 6, (Z)-3-Cyclohexyl-5-(4-hydroxy-3,5-dimethoxybenzylidene)-2-thioxothiazolidin-4-one]",46.9%,peroxynitrite scavenging compared with penicillamine [1]: more potently than penicillamine
66.2 ± 9.44 µM,"O=C1/C(=C/c2ccc(O)c(Br)c2)SC(=S)N1C1CCCCC1 [Analog 7, (Z)-5-(3-Bromo-4-hydroxybenzylidene)-3-cyclohexyl-2-thioxothiazolidin-4-one]",16.6–24.8%,
> 200 µM,"O=C1/C(=C/c2cc(Br)c(O)c(Br)c2)SC(=S)N1C1CCCCC1 [Analog 8, (Z)-3-Cyclohexyl-5-(3,5-dibromo-4-hydroxybenzylidene)-2-thioxothiazolidin-4-one]",16.6–24.8%,
